# From ChEMBL document CHEMBL1142171, “Identification and structural characterization of I84C and I84A mutations that are associated with high-level resistance to human immunodeficiency virus protease inhibitors and impair viral replication” (2007)
# How the values were obtained:
# Type in all cases: functional, HEK293
# [1] = test system: Human immunodeficiency virus 1; assay: Resistance to HIV1 with protease 46M, 54I and I84V mutation in HEK 293 cells relative to similar background
# [2] = test system: Human immunodeficiency virus 1; assay: Antiviral activity against HIV1 A9 isolate with protease I84A mutation in HEK 293 cells relative to wild type
# [3] = test system: Human immunodeficiency virus 1; assay: Antiviral activity against HIV1 A6 isolate with protease I84A mutation in HEK 293 cells relative to wild type
# [4] = test system: Human immunodeficiency virus 1; assay: Resistance to HIV1 with protease 46I, 54I and I84A mutation in HEK 293 cells relative to similar background
# [5] = test system: Human immunodeficiency virus 1; assay: Antiviral activity against HIV1 C4 isolate with protease I84C mutation in HEK 293 cells relative to wild type
# [6] = test system: Human immunodeficiency virus 1; assay: Antiviral activity against HIV1 C6 isolate with protease I84C mutation in HEK 293 cells relative to wild type
# [7] = test system: Human immunodeficiency virus 1; assay: Antiviral activity against HIV1 A11 isolate with protease I84A mutation in HEK 293 cells relative to wild type
# [8] = test system: Human immunodeficiency virus 1; assay: Resistance to HIV1 with protease 46I/L, 54I and I84C mutation in HEK 293 cells relative to similar background
# [9] = test system: Human immunodeficiency virus 1; assay: Antiviral activity against HIV1 A3 isolate with protease I84A mutation in HEK 293 cells relative to wild type
# [10] = test system: Human immunodeficiency virus 1; assay: Antiviral activity against HIV1 A2 isolate with protease I84A mutation in HEK 293 cells relative to wild type
# [11] = test system: Human immunodeficiency virus 1; assay: Antiviral activity against HIV1 A12 isolate with protease I84A mutation in HEK 293 cells relative to wild type
# [12] = test system: Human immunodeficiency virus 1; assay: Antiviral activity against HIV1 C3 isolate with protease I84C mutation in HEK 293 cells relative to wild type
# [13] = test system: Human immunodeficiency virus 1; assay: Antiviral activity against HIV1 C5 isolate with protease I84C mutation in HEK 293 cells relative to wild type
# [14] = test system: Human immunodeficiency virus 1; assay: Antiviral activity against HIV1 A8 isolate with protease I84A mutation in HEK 293 cells relative to wild type
# [15] = test system: Human immunodeficiency virus 1; assay: Antiviral activity against HIV1 C2 isolate with protease I84C mutation in HEK 293 cells relative to wild type
# [16] = test system: Human immunodeficiency virus 1; assay: Antiviral activity against HIV1 C8 isolate with protease I84C mutation in HEK 293 cells relative to wild type
# [17] = test system: Human immunodeficiency virus 1; assay: Antiviral activity against HIV1 A10 isolate with protease I84A mutation in HEK 293 cells relative to wild type
# [18] = test system: Human immunodeficiency virus 1; assay: Resistance to HIV1 with protease 46I, 54V and I84V mutation in HEK 293 cells relative to similar background
# [19] = test system: Human immunodeficiency virus 1; assay: Antiviral activity against HIV1 A15 isolate with protease I84A mutation in HEK 293 cells relative to wild type
# [20] = test system: Human immunodeficiency virus 1; assay: Antiviral activity against HIV1 A4 isolate with protease I84A mutation in HEK 293 cells relative to wild type
# [21] = test system: Human immunodeficiency virus 1; assay: Antiviral activity against HIV1 A1 isolate with protease I84A mutation in HEK 293 cells relative to wild type
# [22] = test system: Human immunodeficiency virus 1; assay: Antiviral activity against HIV1 A5 isolate with protease I84A mutation in HEK 293 cells relative to wild type
# [23] = test system: Human immunodeficiency virus 1; assay: Antiviral activity against HIV1 C1 isolate with protease I84C mutation in HEK 293 cells relative to wild type
# [24] = test system: Human immunodeficiency virus 1; assay: Antiviral activity against HIV1 C10 isolate with protease I84C mutation in HEK 293 cells relative to wild type
# [25] = test system: Human immunodeficiency virus 1; assay: Resistance to HIV1 with protease 46M, 54I and I84C mutation in HEK 293 cells relative to similar background
# [26] = test system: Human immunodeficiency virus 1; assay: Resistance to HIV1 with protease 46I, 54I and I84V mutation in HEK 293 cells relative to similar background
# [27] = test system: Human immunodeficiency virus 1; assay: Resistance to HIV1 with protease 46I, 54M/V and I84A mutation in HEK 293 relative to similar background
# [28] = test system: Human immunodeficiency virus 1; assay: Antiviral activity against HIV1 A14 isolate with protease I84A mutation in HEK 293 cells relative to wild type
# [29] = test system: Human immunodeficiency virus 1; assay: Antiviral activity against HIV1 A13 isolate with protease I84A mutation in HEK 293 cells relative to wild type
# [30] = test system: Human immunodeficiency virus 1; assay: Antiviral activity against HIV1 A7 isolate with protease I84A mutation in HEK 293 cells relative to wild type
# [31] = test system: Human immunodeficiency virus 1; assay: Antiviral activity against HIV1 C7 isolate with protease I84C mutation in HEK 293 cells relative to wild type
# [32] = test system: Human immunodeficiency virus 1; assay: Antiviral activity against HIV1 C11 isolate with protease I84C mutation in HEK 293 cells relative to wild type
# [33] = test system: Human immunodeficiency virus 1; assay: Antiviral activity against HIV1 C9 isolate with protease I84C mutation in HEK 293 cells relative to wild type
Compound,Fold change [1],Fold change [2],Fold change [3],Fold change [4],Fold change [5],Fold change [6],Fold change [7],Fold change [8],Fold change [9],Fold change [11],Fold change [12],Fold change [13],Fold change [14],Fold change [16],Fold change [17],Fold change [19],Fold change [21],Fold change [24],Fold change [28],Fold change [29],further results
CC(C)(C)NC(=O)[C@@H]1C[C@@H]2CCCC[C@@H]2CN1C[C@@H](O)[C@H](Cc1ccccc1)NC(=O)[C@H](CC(N)=O)NC(=O)c1ccc2ccccc2n1,4.3,1000,24,261,92,24,1000,80,365,1000,56,41,265.5,68,1000,1000,1000,242,69,1000,Fold change [10]: 141; Fold change [15]: 14; Fold change [18]: 20; Fold change [20]: 241; Fold change [22]: 256; Fold change [23]: 6.1; Fold change [25]: 56; Fold change [26]: 4.3; Fold change [27]: >1000; Fold change [30]: 1000; Fold change [31]: 1000
CC(C)CN(C[C@@H](O)[C@H](Cc1ccccc1)NC(=O)O[C@H]1CCOC1)S(=O)(=O)c1ccc(N)cc1,4,33,21,33,10,64,47,21,43,400,8.6,20,252,12,400,30,32,53,141,43,Fold change [10]: 31; Fold change [32]: 18; Fold change [15]: 5.4; Fold change [33]: 30; Fold change [18]: 36; Fold change [20]: 32; Fold change [22]: 28; Fold change [23]: 1.7; Fold change [25]: 8.6; Fold change [26]: 9; Fold change [27]: 74; Fold change [30]: 74; Fold change [31]: 23
CC(C)(C)NC(=O)[C@@H]1CN(Cc2cccnc2)CCN1C[C@@H](O)C[C@@H](Cc1ccccc1)C(=O)N[C@H]1c2ccccc2C[C@H]1O.O,2.4,138,38,73,11,63,73,8.6,78,400,4.1,3.8,400,6.4,400,118,73,5.5,152,178,Fold change [10]: 27; Fold change [32]: 5.7; Fold change [15]: 1.3; Fold change [33]: 5.5; Fold change [18]: 19; Fold change [20]: 58; Fold change [22]: 53; Fold change [23]: 1.2; Fold change [25]: 4.1; Fold change [26]: 9.1; Fold change [27]: 178; Fold change [30]: 92; Fold change [31]: 42
Cc1c(O)cccc1C(=O)N[C@@H](CSc1ccccc1)[C@H](O)CN1C[C@H]2CCCC[C@H]2C[C@H]1C(=O)NC(C)(C)C,4,600,64,>600,395,144,600,115,600,600,74,51,600,86,600,600,600,286,210,196,Fold change [10]: 600; Fold change [32]: 91; Fold change [15]: 59; Fold change [33]: 70; Fold change [18]: 16; Fold change [20]: 600; Fold change [22]: 600; Fold change [23]: 15; Fold change [25]: 74; Fold change [26]: 9; Fold change [27]: >600; Fold change [30]: 600; Fold change [31]: 600
COC(=O)N[C@H](C(=O)N[C@@H](Cc1ccccc1)[C@@H](O)CN(Cc1ccc(-c2ccccn2)cc1)NC(=O)[C@@H](NC(=O)OC)C(C)(C)C)C(C)(C)C [ATAZANAVIR],,52,,,,,63,,,25,,,,,700,253,38,19,21,700,Fold change [32]: 5; Fold change [33]: 9.1
Cc1cccc(C)c1OCC(=O)N[C@@H](Cc1ccccc1)[C@@H](O)C[C@H](Cc1ccccc1)NC(=O)[C@H](C(C)C)N1CCCNC1=O [LOPINAVIR],2.8,16,14,14,3.1,47,14,3.1,11,210,1.6,3.1,94,2.9,59,75,10,5.1,104,50,Fold change [32]: 2.8; Fold change [33]: 2.3; Fold change [18]: 80; Fold change [20]: 14; Fold change [22]: 9; Fold change [23]: 0.4; Fold change [25]: 2.2; Fold change [26]: 8.9; Fold change [27]: 75; Fold change [30]: 124; Fold change [31]: 7.2
CC(C)c1nc(CN(C)C(=O)N[C@H](C(=O)N[C@@H](Cc2ccccc2)C[C@H](O)[C@H](Cc2ccccc2)NC(=O)OCc2cncs2)C(C)C)cs1 [RITONAVIR],6.7,167,34,74,9.1,22,73,18,76,400,10,15,86,14,400,400,60,29,105,400,Fold change [10]: 85; Fold change [32]: 15; Fold change [15]: 8.6; Fold change [33]: 20; Fold change [18]: 49; Fold change [20]: 42; Fold change [22]: 54; Fold change [23]: 1.6; Fold change [25]: 10; Fold change [26]: 11; Fold change [27]: >400; Fold change [30]: 141; Fold change [31]: 60
